Results taken from ChEMBL document CHEMBL5241071, “Covalent Small Molecule Immunomodulators Targeting the Protease Active Site” (J Med Chem, 2021).

Tests used:
Neutrophil elastase = biological target: T1, Neutrophil elastase (Homo sapiens, UniProt P08246); experiment: Inhibition of human NE
T1 sequence (P08246 whole entry): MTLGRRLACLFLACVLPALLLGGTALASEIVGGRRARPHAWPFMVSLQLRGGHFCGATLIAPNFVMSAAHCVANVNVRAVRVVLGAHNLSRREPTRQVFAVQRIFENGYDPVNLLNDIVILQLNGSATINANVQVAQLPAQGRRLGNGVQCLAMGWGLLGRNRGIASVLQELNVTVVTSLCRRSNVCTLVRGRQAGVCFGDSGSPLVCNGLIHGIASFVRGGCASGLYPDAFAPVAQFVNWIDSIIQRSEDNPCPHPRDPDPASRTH

[1] = biological target: T2, Granzyme A (Homo sapiens) (UniProt P12544); experiment: Inhibition of human recombinant GzmA assessed as Kobs/[I]
T2 sequence (whole entry): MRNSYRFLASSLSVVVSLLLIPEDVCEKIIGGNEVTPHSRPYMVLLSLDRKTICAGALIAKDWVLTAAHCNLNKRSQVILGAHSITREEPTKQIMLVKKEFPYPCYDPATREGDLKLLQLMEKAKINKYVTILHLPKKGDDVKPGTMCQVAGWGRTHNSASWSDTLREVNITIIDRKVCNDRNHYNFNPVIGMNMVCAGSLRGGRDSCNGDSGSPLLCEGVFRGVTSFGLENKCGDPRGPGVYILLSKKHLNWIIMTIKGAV

kobs/[I] [1] | Structure (SMILES) | IC50 (Neutrophil elastase)
– | O=S(=O)(F)Oc1ccccc1S(=O)(=O)F | 240 nM
94000 M⁻¹ s⁻¹ | N=C(N)SCCOc1oc(=O)c2cc(NC(=O)Nc3ccccc3)ccc2c1Cl | –
